Consider three compounds from article PMC9059126, “Structure-Based Design of a Novel Class of Autotaxin Inhibitors Based on Endogenous Allosteric Modulators” (Journal of Medicinal Chemistry, 2022).

The subject of assay [1] is ATX. The note with it: cited from earlier work.
In the next assay the test system is ATX tunnel. Details: method as in PMID 27075612. Conditions: partial non-competitive modulators; cited from earlier work.
For assay [2], the target named is T1, ATX (Rattus norvegicus, UniProt Q64610). The assay can be described thus: Choline oxidase-coupled choline-release assay of LPC hydrolysis by ATX.
Assay [3] has as its system LPA1-HA-expressing HeLa-Flp-In cells. The assay can be described thus: Confocal microscopy for LPA1 internalization. Type of assay: cell-based, Human. The note with it: 1 μM 18:1 LPC, 20 nM ATX, 15 min. As to the method:
Human LPA1 cDNA was amplified by PCR to remove its stop codon and add the restriction sites for BamHI and XhoI, after which it was subcloned in an in-house produced pDNA5.1-HA vector. 0.2 μg of the resulting vector and 1.8 μg of pOG44 Flp-Recombinase Expression Vector (Invitrogen) were incubated with 6 μL of Fugene6 (Invitrogen) in 200 μL of OptiMEM (Gibco) for 30 min, after which the mix was added to previously produced HeLa-Flp-In cells.[43] Their medium was refreshed 24 h later, and selection with 1 μg/mL puromycin was started and maintained with resistant cells.
Serum-starved LPA1-HA-expressing HeLa-Flp-In cells cultured on 24 mm (#1,5) were treated with 1 μM LPC and 20 nM ATX in the presence or absence of 22 or 23 for 15 min in DMEM containing 0.05% fatty acid-free BSA. Subsequently, coverslips were washed and fixed with 4% PFA, permeabilized with 0.1% Triton X-100, and blocked with 2% BSA for 1 h. Incubation with anti-HA antibody (3F10 from Roche Diagnostics; 1:200) was done for 1 h, followed by incubation with donkey anti-rat Alexa Fluor 488-conjugated antibody (A-21208 from Invitrogen; 1:200) for 1 h at room temperature. For confocal microscopy, cells were washed with PBS, mounted with Immnuno-MountTM (Thermo Scientific), visualized on a LEICA TCS-SP5 confocal microscope (63× objective), and analyzed using ImageJ software.

A further assay has as its system BJeH fibroblasts. The assay can be described thus: AKT and ERK phosphorylation by western blotting. Format: cell-based. The note with it: Homo sapiens, 0.25 h, 15 min. As to the method:
100,000 BJeH cells were seeded in 12-well tissue culture plates and allowed to grow for 24 h in DMEM (GIBCO, Life Technologies) containing 10% FCS (Thermo Scientific) and 100 U mL^–1 streptomycin/penicillin (GIBCO, Life Technologies). Next, they were washed twice with phosphate-buffered saline (PBS) and serum-starved O/N. ATX 20 nM was incubated with inhibitors for 30 min in a serum-free medium containing 0.05% (w/v) fatty acid-free BSA (total volume 1 mL). The medium from the 12-well plates was removed and replaced with 1 mL of the ATX–inhibitor mixture. Cells were stimulated for 15 min, the medium was removed, and plates were immediately frozen on dry ice and stored at −80 °C. For western blotting, cells were washed with cold PBS; lysed in RIPA buffer; supplemented with protease inhibitors (Pierce), 20 mM NaF and 1 mM orthovanadate; and spun down. The protein concentration was measured using a BCA protein assay kit (Pierce), and LDS sample buffer (NuPAGE, Invitrogen) and 1 mM dithiothreitol were added to the lysate. 20 μg of the total protein was loaded on sodium dodecyl sulfate–polyacrylamide gel electrophoresis pre-cast gradient gels (4–12% Nu-Page Bis-Tris, Invitrogen), followed by transfer to a nitrocellulose membrane. Non-specific protein binding was blocked by 5% BSA in PBS-Tween (0.1%); the primary antibodies were phospho-Akt (Ser473), catalogue number: D93, dilution: 1:1,000; phospho-ERK1/2 (Thr202/Tyr204), catalogue number: D13.14.4E, dilution: 1:2,000, from Cell Signaling Technology. They were incubated O/N at 4 °C in PBS–Tween with 5% BSA, containing 0.1% NaN3. Blots were then incubated for 1 h at room temperature with monoclonal anti-β-actin antibody, clone AC-15, dilution: 1:10,000, from Sigma, which was dissolved in PBS–Tween with 5% skimmed milk containing 0.1% NaN3. HRP-conjugated secondary antibodies [goat anti-mouse (Bio-Rad), catalogue number: 1721011; goat anti-rabbit (Pierce), catalogue number: 1858415] were incubated for 1 h at room temperature in PBS–Tween with 2.5% BSA and developed using an ECL Western blot reagent.
Background: Immunoblotting shows a protein as a band on a membrane.

For the next assay, the system named is MDA-MB-231 cells. In words: Boyden chamber cell migration assay. Type of assay: cell-based. The note with it: migration for 4 h; for EC50: 20 nM ATX, 1 μM 18:1 LPC. As to the method: Migration of MDA-MB-231 cells was performed using 48-well chemotaxis chambers (Neuro Probe, Inc.) equipped with […] pore polycarbonate membranes, which were coated with fibronectin (10 μg/mL) (F1141, Sigma-Aldrich). Cells (2 × 10^6 cells/mL) were added to the upper chamber. 0.05% fatty acid-free BSA was used as a lysophospholipid carrier. Cells were allowed to migrate for 4 h at 37 °C in humidified air containing 5% CO2. Migrated cells were fixed in Diff-Quik Fix and stained using Diff-Quik II. Migration was quantified by color intensity measurements using Photoshop software.

The target of assay [4] is T1, ATX. The assay can be described thus: Mechanistic studies: mode of inhibition and Ki from LPC titration. Also on record: made in house. Type of assay: biochemical. As to the method: The biochemical studies of ATX lysoPLD activity were performed with ATX. Activity was measured by a coupled reaction with 1 U mL^–1 choline oxidase and 2 U mL^–1 horseradish peroxidase (HRP) and 2 mM homovanillic acid (HVA) (all from Sigma-Aldrich). For the assays, 14:0, 16:0, 18:1, and 20:0 LPC (Avanti Polar Lipids Inc.) were incubated with 20 nM ATX, reaching a final volume of 100 μL of the buffer, which contained 50 mM Tris, 0.01%, 50 mM CaCl2, Triton X-100, pH 7.4. Steady-state choline release was measured at 37 °C by HVA fluorescence at λex/λem = 320/460 nm in Corning 96- or 384-well OptiPlate (Sigma-Aldrich) and with a Pherastar plate reader (BMG Labtech). […] The resulting fluorescence intensity signal over time was used to model all inhibitor concentrations simultaneously using the following formula, where vmax and vmin were fitted for the minimum and maximum relative velocities, respectively, and ci corresponds to the inhibitor concentration for each assay[20] [drawing 1] 1
To statistically determine the chance of each type of inhibition, we calculated the α value in the partial mixed inhibition model (eq 5), where Part defines the partiality of the inhibition, and α > 1 or α = 1 correspond to competitive and non-competitive inhibition modes, respectively. Last, we utilized Akaike’s Information Criterion[42] to assess the significance of the analysis [drawing 5] 5

Assay [5] addresses T1, ATX. The assay can be described thus: Competition with LPA allostery (LPA-mediated activation of ATX). Details: made in house. Format: biochemical. Conditions: inhibitor at concentrations close to or lower than IC50; 150 μM 18:1 LPC, 18:1 LPA, 20 nM ATX. As to the method: The activation assays using LPA were performed in a similar way to those done for the inhibitors. In this case, LPA was dissolved in ethanol/H20 (1:1) and 0.01% TX-100 and was added to the reaction buffer. The presence of ethanol was taken into account, and controls in the absence of ATX and/or LPC were employed to correct the kinetic data. ATX was incubated for 30 min with different concentrations of inhibitors and subsequently added to the reaction buffer containing 150 μM 18:1 LPC and different starting concentrations of 18:1 LPA. The slopes were calculated from at least 60 min after the addition of ATX. The percentage of LPA-driven activation was normalized to ATX in the absence of LPA and inhibitors, which represented 100% activity. Last, the activation constant or AC50 was obtained from the following equation [drawing 2] 2

[6] abbreviates: 14:0 LPC, 150 μM LPC, 20 nM ATX.
The mark [7] stands for this setting: 16:0 LPC, 150 μM LPC, 20 nM ATX.
Setting [8] is: 18:1 LPC, 150 μM LPC, 20 nM ATX.
[9] abbreviates: LPC hydrolysis assay, 20 nM ATX.

Where two headings read alike, the source gives them in different places.

For orientation: IC50 means the concentration that gives 50% inhibition. On to “2-[[2-Ethyl-6-[4-[2-(3-hydroxyazetidin-1-yl)-2-oxoethyl]piperazin-1-yl]-8-methylimidazo[1,2-a]pyridin-3-yl]methylamino]-4-(4-fluorophenyl)thiazole-5-carbonitrile [Compound 3]”, for which the IC50 in the assay on ATX [1] is 131 nM.

Regarding `C[C@H](CCC(=O)O)[C@H]1CC[C@H]2[C@@H]3[C@@H](O)C[C@@H]4C[C@H](O)CC[C@]4(C)[C@H]3CC[C@]12C` [Compound 9, ursodeoxycholic acid, reference compound], the “affinity for the ATX tunnel” value in the assay on ATX tunnel is on record as “micromolar”. Besides, the IC50 at ATX [2] turned out to be 9000 nM.

The EC50 is the concentration that produces a half-maximal response. The term Ki denotes a dissociation constant, usually derived from enzyme kinetics or from competition with a known ligand. The low end stands for higher affinity, the high end for lower affinity. Consider `C[C@H](CCC(=O)N1CCC(Oc2ccc(B(O)O)cc2)CC1)[C@H]1CC[C@H]2C3[C@@H](O)C[C@@H]4C[C@H](O)CC[C@]4(C)[C@H]3CC[C@]12C` (stereo partly drawn) [Compound 23], for which the “decrease of LPA1 internalization” value in assay [3] is reported as “approximately 75%”. Moreover, the EC50 in the assay with BJeH fibroblasts (BJeH cells, 20 nM ATX, 1 μM 18:1 LPC, read-out: EC50 (P-AKT and P-ERK levels)) is roughly 60 nM; in the assay on MDA-MB-231 cells (Homo sapiens, MDA-MB-231, 4 h) it was 186 ± 99 nM; with MDA-MB-231 cells, roughly 200 nM. In addition, in the assay on BJeH fibroblasts (BJeH, compared to uninhibited ATX incubated with LPC, read-out: reduction of maximal effective cell response (P-AKT and P-ERK)), the Emax was roughly 60%. The “reduction of cell migration” value in the assay with MDA-MB-231 cells (ATX + LPC) is roughly 50%. Besides, on ATX [4] (Akaike's informative criteria), the “percentage of competitive versus non-competitive inhibition” value turned out to be 99%. Also, at ATX [4] (LPC hydrolysis), the mode of inhibition entry was “competitive”. At ATX [4] (LPC titration at increasing inhibitor concentrations, Michaelis-Menten nonlinear regression), this compound had a Ki of 9 ± 1 nM. Further, the “α (partial mixed inhibition model)” value on ATX [4] (α > 1 competitive, α = 1 non-competitive) was found to be 8.5. Also, the “LPA-mediated activation of ATX activity” value at ATX [5] is “dose-dependent decrease”. The IC50 against ATX [2] (setting [6]) was found to be 54 nM; against ATX [2] (setting [7]) it was 34 nM; at ATX [2] (setting [8]), 29 nM; against ATX [2] (20:0 LPC, 150 μM LPC, 20 nM ATX) it was 33 nM; against ATX [2] (setting [9]) it was 30 nM. In addition, the “Residual Activity (%)” value on ATX [2] (setting [6]) stood at 0%; on ATX [2] (setting [7]), 12%; on ATX [2] (setting [8]), 7%; at ATX [2] (20:0 LPC, 150 μM LPC, 20 nM ATX, % of catalytic rate of inhibitor-free control), 51%; on ATX [2] (setting [9]) it was 0%.
